Measured values reported in US20110251233A1, “FORMULATION FOR THE BUCCAL TRANSMUCOSAL ADMINISTRATION OF SETRONS” (priority 2008, published 2011).

Test: dissolution of ondansetron in hydroalcoholic solution
Assay type: physicochemical
Details: approximately 50° ethanol
Method: By way of example, the coefficient of dissolution of ondansetron in ethanol allows complete dissolution of said active ingredient at the rate of 2 milligrams (mg) of ondansetron per 0.75 milliliters (mL) of approximately 50° ethanol. This coefficient may be modulated as a function of the degree of alcohol and the water/ethanol ratio used.

- coefficient of dissolution (complete dissolution): 2 mg per 0.75 mL
Structure (SMILES): Cc1nccn1CC1CCc2c(c3ccccc3n2C)C1=O (stereo not shown) [ondansetron]
